Reference: patent US20160193219A1, “SUBSTITUTED 2,3-DIHYDROIMIDAZO[1,2-C]QUINAZOLINE SALTS” (priority 2011, published 2016)
Where two headings read alike, the source gives them in different places.

Assays:
[1] = test system: U87MG; test: Proliferation assay (Cell Titer-Glo, 72 h), U87MG; conditions: Homo sapiens, U-87 MG
[2] = test system: MCF7; test: Proliferation assay (Cell Titer-Glo, 72 h), MCF7; conditions: MCF7, Breast, listed as free base
[3] = test system: HT29; test: Proliferation assay (Cell Titer-Glo, 72 h), HT29; conditions: HT29, Colon, listed as free base
[4] = test system: SK-Br-3; test: Proliferation assay (Cell Titer-Glo, 72 h), SK-Br-3; conditions: Homo sapiens, SK-BR-3, 72 h, SK-Br-3, Breast
[5] = test system: PC3; test: Proliferation assay (Cell Titer-Glo, 72 h), PC3; conditions: Homo sapiens, PC-3, 72 h, PC3, Prostate
[6] = test system: BT474; test: Proliferation assay (Cell Titer-Glo, 72 h), BT474; conditions: Homo sapiens, BT-474, 72 h, BT474, Breast
[7] = Stability as solid (stored at 90° C. for 1 week, HPLC); format: physicochemical
[8] = test system: MDA-MB-468; test: Proliferation assay (Cell Titer-Glo, 72 h), MDA-MB-468; conditions: MDA-MB-468, Breast, listed as free base
[9] = test system: H460; test: Proliferation assay (Cell Titer-Glo, 72 h), H460; conditions: Homo sapiens, NCI-H460, 72 h, H460, Lung
[10] = test system: LNCaP; test: Proliferation assay (Cell Titer-Glo, 72 h), LNCaP; conditions: Homo sapiens, 72 h, Prostate
[11] = test system: T47D; test: Proliferation assay (Cell Titer-Glo, 72 h), T47D; conditions: Breast, listed as free base
[12] = test system: A549; test: Proliferation assay (Cell Titer-Glo, 72 h), A549; conditions: Homo sapiens, A549, 72 h, A549, Lung
[13] = test system: 786O; test: Proliferation assay (Cell Titer-Glo, 72 h), 786O; conditions: Kidney, listed as free base
[14] = test system: KPL4; test: Proliferation assay (Cell Titer-Glo, 72 h), KPL4; conditions: KPL4, 72 h
[15] = test system: BT20; test: Proliferation assay (Cell Titer-Glo, 72 h), BT20; conditions: BT20, Breast, listed as free base
[16] = test system: Colo205; test: Proliferation assay (Cell Titer-Glo, 72 h), Colo205; conditions: Colo205, Colon, listed as free base
[17] = test system: HCT116; test: Proliferation assay (Cell Titer-Glo, 72 h), HCT116; conditions: Homo sapiens, HCT-116, 72 h, HCT116, Colon

For COc1c(OCCCN2CCOCC2)ccc2c1N=C(NC(=O)c1cnc(N)nc1)N1CCN=C21 [compound of formula (I), 2-amino-N-[7-methoxy-8-(3-morpholin-4-ylpropoxy)-2,3-dihydroimidazo[1,2-c]quinazolin-5-yl]pyrimidine-5-carboxamide], which IC50 [1] is on record?
Its IC50 is 85 nM.

And the IC50 [2]?
The IC50 was 27 nM.

What about the IC50 [3] of the same compound?
The IC50 was 27 nM.

What about the IC50 [4] of the same compound?
The IC50 was 2 nM.

And the IC50 [5]?
The IC50 was 100 nM.

And the IC50 [6]?
The IC50 was 5 nM.

What about the “stability in solid form” value [7] of the same compound?
The value was “stable in solid form”.

What about the therm. stab. solid ([7]; 1 w @ 90° C.) of the same compound?
The therm. stab. solid was “++”.

And the IC50 [8]?
Its IC50 is 760 nM.

What about the IC50 [9] of the same compound?
The IC50 was 46 nM.

And the IC50 [10]?
Its IC50 is 69 nM.

And the IC50 [11]?
The IC50 was 6 nM.

And the IC50 [12]?
Its IC50 is 37 nM.

And the IC50 [13]?
Its IC50 is 116 nM.

What about the IC50 [14] of the same compound?
Its IC50 is 3 nM.

What about the Appearance (0.1M HCl, 1 week, 25° C.) of the same compound?
Its Appearance is “slightly colored solution”.

And the “Organic impurities, single” value (0.1M HCl, 1 week, 25° C.)?
Its value is 7.15 Area %.

What about the “Organic impurities, sum of all” value (0.1M HCl, 1 week, 25° C.) of the same compound?
The value was 24.27 Area %.

What about the Appearance (0.1M HCl, 1 week, 70° C.) of the same compound?
Its Appearance is “slightly colored solution”.

What about the “Organic impurities, single” value (0.1M HCl, 1 week, 70° C.) of the same compound?
The value was 25.48 Area %.

And the “Organic impurities, sum of all” value (0.1M HCl, 1 week, 70° C.)?
Its value is 100.00 Area %.

And the Appearance (0.1M HCl, 24 h, 25° C.)?
The Appearance was “slightly colored solution”.

And the “Organic impurities, single” value (0.1M HCl, 24 h, 25° C.)?
Its value is 1.90 Area %.

What about the “Organic impurities, sum of all” value (0.1M HCl, 24 h, 25° C.) of the same compound?
Its value is 8.75 Area %.

What about the Appearance (0.1M HCl, 24 h, 70° C.) of the same compound?
The Appearance was “slightly colored solution”.

And the “Organic impurities, single” value (0.1M HCl, 24 h, 70° C.)?
The value was 22.82 Area %.

What about the “Organic impurities, sum of all” value (0.1M HCl, 24 h, 70° C.) of the same compound?
The value was 92.49 Area %.

What about the Appearance (0.1M HCl, Initial) of the same compound?
The Appearance was “slightly colored solution”.

And the “Organic impurities, single” value (0.1M HCl, Initial)?
Its value is 1.13 Area %.

And the “Organic impurities, sum of all” value (0.1M HCl, Initial)?
Its value is 5.87 Area %.

What about the Appearance (0.1M NaOH, 1 week, 25° C.) of the same compound?
Its Appearance is “slightly colored solution”.

What about the “Organic impurities, single” value (0.1M NaOH, 1 week, 25° C.) of the same compound?
Its value is 22.03 Area %.

And the “Organic impurities, sum of all” value (0.1M NaOH, 1 week, 25° C.)?
The value was 86.64 Area %.

What about the Appearance (0.1M NaOH, 1 week, 70° C.) of the same compound?
Its Appearance is “slightly colored solution”.

What about the “Organic impurities, single” value (0.1M NaOH, 1 week, 70° C.) of the same compound?
The value was 32.63 Area %.

What about the “Organic impurities, sum of all” value (0.1M NaOH, 1 week, 70° C.) of the same compound?
Its value is 99.90 Area %.

What about the Appearance (0.1M NaOH, 24 h, 25° C.) of the same compound?
Its Appearance is “slightly colored solution”.

What about the “Organic impurities, single” value (0.1M NaOH, 24 h, 25° C.) of the same compound?
The value was 10.02 Area %.

What about the “Organic impurities, sum of all” value (0.1M NaOH, 24 h, 25° C.) of the same compound?
Its value is 45.40 Area %.

What about the Appearance (0.1M NaOH, 24 h, 70° C.) of the same compound?
Its Appearance is “slightly colored solution”.

And the “Organic impurities, single” value (0.1M NaOH, 24 h, 70° C.)?
Its value is 23.94 Area %.

What about the “Organic impurities, sum of all” value (0.1M NaOH, 24 h, 70° C.) of the same compound?
Its value is 99.88 Area %.

And the Appearance (0.1M NaOH, Initial)?
The Appearance was “slightly colored solution”.

What about the “Organic impurities, single” value (0.1M NaOH, Initial) of the same compound?
Its value is 6.51 Area %.

And the “Organic impurities, sum of all” value (0.1M NaOH, Initial)?
Its value is 30.72 Area %.

And the Appearance (Buffer pH 7, 1 week, 25° C.)?
Its Appearance is “slightly colored turbid”.

What about the “Organic impurities, single” value (Buffer pH 7, 1 week, 25° C.) of the same compound?
Its value is 0.82 Area %.

What about the “Organic impurities, sum of all” value (Buffer pH 7, 1 week, 25° C.) of the same compound?
The value was 4.85 Area %.

What about the Appearance (Buffer pH 7, 1 week, 70° C.) of the same compound?
Its Appearance is “slightly colored solution”.

And the “Organic impurities, single” value (Buffer pH 7, 1 week, 70° C.)?
The value was 39.01 Area %.

And the “Organic impurities, sum of all” value (Buffer pH 7, 1 week, 70° C.)?
The value was 97.65 Area %.

And the Appearance (Buffer pH 7, 24 h, 25° C.)?
Its Appearance is “slightly colored turbid”.

And the “Organic impurities, single” value (Buffer pH 7, 24 h, 25° C.)?
Its value is 0.20 Area %.

And the “Organic impurities, sum of all” value (Buffer pH 7, 24 h, 25° C.)?
The value was 3.22 Area %.

What about the Appearance (Buffer pH 7, 24 h, 70° C.) of the same compound?
The Appearance was “slightly colored solution”.

What about the “Organic impurities, single” value (Buffer pH 7, 24 h, 70° C.) of the same compound?
The value was 23.25 Area %.

And the “Organic impurities, sum of all” value (Buffer pH 7, 24 h, 70° C.)?
Its value is 56.06 Area %.

And the Appearance (Buffer pH 7, Initial)?
The Appearance was “slightly colored turbid”.

What about the “Organic impurities, single” value (Buffer pH 7, Initial) of the same compound?
The value was 0.23 Area %.

And the “Organic impurities, sum of all” value (Buffer pH 7, Initial)?
The value was 3.15 Area %.

And the Appearance (Water, 1 week, 25° C.)?
The Appearance was “slightly colored solution”.

What about the “Organic impurities, single” value (Water, 1 week, 25° C.) of the same compound?
Its value is 0.54 Area %.

What about the “Organic impurities, sum of all” value (Water, 1 week, 25° C.) of the same compound?
The value was 5.33 Area %.

What about the Appearance (Water, 1 week, 70° C.) of the same compound?
The Appearance was “slightly colored solution”.

What about the “Organic impurities, single” value (Water, 1 week, 70° C.) of the same compound?
Its value is 45.44 Area %.

And the “Organic impurities, sum of all” value (Water, 1 week, 70° C.)?
Its value is 98.59 Area %.

What about the Appearance (Water, 24 h, 25° C.) of the same compound?
Its Appearance is “slightly colored solution”.

And the “Organic impurities, single” value (Water, 24 h, 25° C.)?
The value was 0.23 Area %.

And the “Organic impurities, sum of all” value (Water, 24 h, 25° C.)?
Its value is 3.43 Area %.

And the Appearance (Water, 24 h, 70° C.)?
The Appearance was “slightly colored solution”.

What about the “Organic impurities, single” value (Water, 24 h, 70° C.) of the same compound?
The value was 25.89 Area %.

And the “Organic impurities, sum of all” value (Water, 24 h, 70° C.)?
Its value is 58.00 Area %.

What about the Appearance (Water, Initial) of the same compound?
Its Appearance is “slightly colored solution”.

What about the “Organic impurities, single” value (Water, Initial) of the same compound?
Its value is 0.25 Area %.

And the “Organic impurities, sum of all” value (Water, Initial)?
The value was 2.79 Area %.

And the IC50 [15]?
The IC50 was 6 nM.

What about the IC50 [16] of the same compound?
Its IC50 is 48 nM.

And the IC50 [17]?
The IC50 was 56 nM.
